Results reported in patent publication US20130197043A1, “USE OF THE FETAL REPROGRAMMING OF A PPAR AGONIST” (SNU R&DB FOUNDATION, priority 2010, published 2013).

Columns and labels:
[1] = Pharmacokinetic experiment: passage of PPAR δ agonist through the placenta; type: in vivo, mice
Method: Pharmacokinetic experiment was conducted in order to confirm whether or not a PPAR δ agonist used in the present study, CMDD1111, passes through the placenta. CMDD 1111 was administered to 16-day pregnant mice at a concentration of 10 mg/kg, and then concentrations of the compound distributed in the bloods of mother animals and fetuses were analyzed for 24 hours. […] In the case of the fetuses, the blood concentration thereof tended to increase with the time, unlike the mother animals, and the maximum blood concentration thereof was 8.9 μM.

[2] = system: mice subjected to fetal reprogramming; experiment: Body weight gain on high-fat feedstuff of fetal-reprogrammed mice; type: in vivo; conditions: 13-week old mice, 35% fat feedstuff, 84 days
Description: Lipometabolism has deep correlation with the occurrence of obesity and diabetes. Therefore, the present inventors checked the fetal reprogramming effect of PPAR δ on the occurrence of metabolic syndrome. The control group and administration group of 13-week old mice were fed with high-fat feedstuff (fat content: 35%) over a total of 84 days while being weighed once per week. As a result, it may be seen that, the body weight gain was suppressed by 8% in the mice subjected to fetal reprogramming by PPAR δ agonist compound (CMDD1111) as compared with the control group, as shown in FIG. 18.

[3] = Maternal treatment: side effects, fetal body weight, growth, skeleton staining; type: in vivo, mice
Method: The present inventors used a method of administering a PPAR δ agonist to a pregnant mother (maternal treatment) in order to investigate the role of fetal reprogramming of PPAR δ during mammalian development. For the fetal reprogramming, the PPAR δ agonist was orally administered to pregnant mice at a concentration of 10 mg/kg every day, and a specific experiment method was summarized in FIG. 1.
Fertile female mice and male mice were bred, and then pregnancy or not was checked by plug confirmation. CMDD1111 was orally administered to pregnant female mice at a concentration of 10 mg/kg once per day every day for six weeks (gestation and lactation periods). Side effects due to the administered material were not observed during the gestation period. The weight of a fetus group administered with vehicle during the gestation period was 1.33±0.11 g, and the weight of a fetus group administered with CMDD1111 was 1.37±0.09 g. The weight difference between the two groups was not shown (FIG. 3). In addition, growth inhibition or promotion due to the administered material was not observed in the comparison results of growth rate of fetus for 3 weeks (FIG. 4). There was no difference in body weight between the two groups as adults (FIG. 5). Deformity due to the administered material was not observed in the skeleton staining results using Alizaren red S and Alician blue dye (FIG. 6).

[4] = system: slow muscle fibers in the gastrocnemius muscle; experiment: Muscle fiber type analysis (muscle colour, metachromatic staining, slow type MHC immunostaining); type: in vivo, mice
Description: The slow muscle fiber has a lot of myoglobin, which is oxygen transfer protein, and thus appears redder than the fast muscle. When the skin of the fetus was removed and the muscle thereof was observed, it may be seen that administered mice group had redder muscle (FIGS. 7A and 7B). In order to confirm whether or not slow muscle fiber generation was increased due to the administration material (CMDD1111), hind legs thereof were resected and then frozen in OCT. Frozen muscle tissues were cut into […] sections by using a freezing cryotome, and mounted on slides, which was then subjected to metachromatic staining. The slow muscle fiber was stained darker blue than the fast muscle by the metachromatic staining. […] Muscle fibers may be discernable even by immunostaining using an isoform antibody of the myosin heavy chain (MHC). The present inventors conducted immunostaining using the slow type MHC in order to confirm whether or not slow muscle fibers were increased by the administration material (CMDD1111).

PPAR δ-deficient cells = experiment: Primary cell culture and real-time PCR gene expression analysis, PPAR δ-deficient cells; type: cell-based, mouse; conditions: 300 nM
Method: (§1) However, it has not been reported that the PPARs response element (PPRE) is present at promoters of these three genes. Therefore, the present inventors resected the muscle of the mouse with the removal of PPAR δ gene and conducted primary culture, in order to verify whether or not the increases in expressions of the above three genes are PPAR δ-dependent. After hind legs of a five-day-old fetus was resected, primary culture was conducted by the same method as developed by Rando (Rando et al, J. Cell. Biol., 1994, 125, 1275-1287). Myoblast, after being cultured, was transferred to a 6-well plate, and then differentiated into myotube while being treated with 300 nM of PPAR δ agonist (CMDD1111). The differentiated myotube was further treated with 300 nM of PPAR δ agonist (CMDD1111) for 2 days, and then total RNA was extracted by using a TRIzol reagent (Gibco). The extracted RNA was subjected to reverse transcription, to synthesize cDNA, which was then used as a template for real-time PCR analysis.
As the result of real-time PCR analysis, expressions of PDK4 and CPT-1, known to be directly regulated by PPAR δ, were increased by 2.2 fold and 1.5 fold, respectively. However, there was no change in PPAR δ-deficient cells. This means that expressions of PDK4 and CPT-1 are PPAR δ-dependently regulated. […]

primary cultured myotube = experiment: Primary cell culture and real-time PCR gene expression analysis; type: cell-based, mouse; conditions: 300 nM, real-time PCR
Method: as §1

In the case of `Cc1cc(SC(Cc2ccccc2)c2sc(-c3ccc(C(F)(F)F)cc3)nc2C)ccc1OCC(=O)O` (stereo not drawn) [CMDD1111], the “passage through the placenta” value ([1]; 16-day pregnant mice, 10 mg/kg) is reported as “passed through the placenta”, the half-life ([1]; female, mouse, blood, oral, mother animals, 16-day pregnant mice, 10 mg/kg, read-out: half-time (t1/2) (converted)) is reported as 9 h and the Cmax ([1]; female, mouse, blood, oral, mother animals, 16-day pregnant mice, 10 mg/kg, read-out: maximum blood concentration (Cmax)) is reported as 38 µM. The Tmax ([1]; female, mouse, blood, oral, mother animals, 16-day pregnant mice, 10 mg/kg, read-out: time for reaching the maximum blood concentration (Tmax)) was 1 h, the maximum blood concentration ([1]; fetuses, mother given 10 mg/kg, 24 hours) was 8.9 µM and the “body weight gain suppression versus control” value [2] was 8%. The “growth inhibition or promotion (growth rate of fetus)” value ([3]; 3 weeks) was “not observed”, the “deformity in skeleton staining” value ([3]; Alizaren red S and Alician blue dye) was “not observed” and the “body weight versus vehicle group” value ([3]; as adults) was “no difference”. For the same compound, the “side effects due to the administered material” value ([3]; gestation period, 10 mg/kg oral once per day) was “not observed”, the “weight of fetus group” value ([3]; immediately after birth, mother 10 mg/kg during gestation) was 1.37 ± 0.09 g and the “muscle colour after skin removal” value ([4]; fetal reprogramming, maternal 10 mg/kg) was “redder muscle”. The “muscle fibers responsive to slow type MHC, immunostaining” value ([4]; gastrocnemius muscle) was “increased”, the “slow (dark blue) muscle fibers, metachromatic staining” value ([4]; gastrocnemius muscle) was “increasingly generated” and the “expressions of PDK4 and CPT-1” value (PPAR δ-deficient cells) was “no change”. For the same compound, the “expression of ATP2A2” value (primary cultured myotube) was 4.3 fold, the “expression of CPT-1” value (primary cultured myotube) was 1.5 fold and the “expression of PDK4” value (primary cultured myotube) was 2.2 fold. For the same compound, the “expression of PLN” value (primary cultured myotube) was 1.7 fold, the “expression of RYR” value (primary cultured myotube) was 2.2 fold and the “expression of TNNI3” value (primary cultured myotube) was 1.7 fold.
